Reference: patent US20260027117A1, “METHODS OF TREATING SMALL CELL LUNG CANCER” (Debiopharm International S.A., priority 2022, published 2026)
pIC50: −log10 of the molar value.

Columns and labels:
[1] = test system: NCI-H446 tumor cells; assay: In vitro synergy, CellTiter-Glo viability assay with Bliss synergy method; assay type: cell-based; conditions: in combination with carboplatin, 72 hours, 9 doses, 0-10 uM and carboplatin 0-300 uM, Bliss score >5 demonstrates synergy
Description: NCI-H446 tumor cells were plated at a density of 5000 cells/90 ul in 96 well plates. Cells were treated with Compound of formula (I) and/or carboplatin, either alone or in combination with 9 different doses (3-fold serial dilutions starting at 10 uM for Compound of formula (I) and 300 uM for carboplatin) for 72 hours.

[2] = test system: NCI-H446 SCLC tumor cells; assay: NCI-H446 CDX model, tumor growth inhibition; assay type: in vivo, Balb/c nude mice; conditions: 16 day cycle; for TGI effects compared to vehicle: monotherapy, Compound of formula (I) 30 mg/kg QD 3 consecutive days a week P.O., carboplatin 50 mg/kg QW I.V.
Description: (§1) Female Balb/c nude mice were inoculated subcutaneously with 5×10^6 NCI-H446 SCLC tumor cells. Animals were randomized when tumor volume reached approximately 100-150 mm^3. Animals were treated with vehicle (0.5% methycellulose, 1% Tween 80 P.O. and saline I.V.), Compound of formula (I) formulated as a suspension in 0.5% methycellulose and 1% Tween 80 (30 mg/kg QD, 3 consecutive days a week, P.O.), or Carboplatin (50 mg/kg QW, I.V.) administered over a 16 day cycle, either alone or in combination (5 animals per group). In combination arms, Compound of formula (I) was administered 2 hours prior to chemotherapy. Tumor growth was monitored twice weekly by caliper measurement and tumor volume calculated using the equation V=(L×W×W)/2, where V is tumor volume, L is tumor length (the longest tumor dimension) and W is tumor width (the longest tumor dimension perpendicular to L). During routine monitoring, the animals were checked for any effects of tumor growth and treatments on behavior such as mobility, food and water consumption, body weight gain/loss 3 times a week, eye/hair matting and any other abnormalities. Mortality and observed clinical signs were recorded for individual animals.

[3] = test system: SC6 PDX tumors; assay: SC6 patient derived xenograft (PDX) model, tumor growth inhibition; assay type: in vivo, athymic nude mice; conditions: for tumor growth inhibition (TGI): 30 mg/kg QD P.O. in combination with etoposide 6 mg/kg QD [3 d on/4 d off] I.P., compared to vehicle control
Description: (§2) Female athymic nude mice were inoculated subcutaneously with tumor fragments from SC6 PDX tumors. Animals were randomized when tumor volume reached approximately 60-200 mm^3. Animals were treated with vehicle (0.5% methycellulose, 1% Tween 80 P.O. and saline I.V.), Compound of formula (I) formulated as a suspension in 0.5% methycellulose and 1% Tween 80 (30 mg/kg QD, P.O.), Carboplatin (25 mg/kg QW, I.P.) or etoposide (6 mg/kg QD [3 d on/4 d off], I.P.), administered over a 21 day cycle either alone or in combination (7 animals per group). In combination arms, Compound of formula (I) was administered 2 hours prior to chemotherapy. Tumor growth was monitored twice weekly by caliper measurement and tumor volume calculated using the equation V=(L×W×W)/2, where V is tumor volume, L is tumor length (the longest tumor dimension) and W is tumor width (the longest tumor dimension perpendicular to L). During routine monitoring, the animals were checked for any effects of tumor growth and treatments on behavior such as mobility, food and water consumption, body weight gain/loss 3 times a week, eye/hair matting and any other abnormalities. Mortality and observed clinical signs were recorded for individual animals.

[4] = SC6 PDX model, tolerability (body weight); assay type: in vivo; conditions: in combination with etoposide
Description: as §2

[5] = NCI-H1048 CDX model, tolerability (body weight); assay type: in vivo
Description: (§3) Female Balb/c nude mice were inoculated subcutaneously with 5×10^6 NCI-H1048 SCLC tumor cells. Animals were randomized when tumor volume reached approximately 100-150 mm^3. Animals were treated with vehicle (0.5% methycellulose, 1% Tween 80 P.O. and saline I.V.), Compound of formula (I) formulated as a suspension in 0.5% methycellulose and 1% Tween 80 (30 mg/kg QD, P.O.), Carboplatin (50 mg/kg QW, I.V.) or etoposide (25 mg/kg or 12.5 mg/kg QW, I.P.), administered over a 21 day cycle, either alone or in combination (8 animals per group in double combination studies; 10 animals per group in triple combination study). In combination arms, Compound of formula (I) was administered 2 hours prior to chemotherapy. Tumor growth was monitored twice weekly by caliper measurement and tumor volume calculated using the equation V=(L×W×W)/2, where V is tumor volume, L is tumor length (the longest tumor dimension) and W is tumor width (the longest tumor dimension perpendicular to L). During routine monitoring, the animals were checked for any effects of tumor growth and treatments on behavior such as mobility, food and water consumption, body weight gain/loss 3 times a week, eye/hair matting and any other abnormalities. Mortality and observed clinical signs were recorded for individual animals.

[6] = test system: NCI-H1048 SCLC tumor cells; assay: NCI-H1048 cell line-derived xenograft (CDX) model, tumor growth inhibition; assay type: in vivo, Balb/c nude mice
Description: as §3

[7] = test system: SCLC organoids; assay: SCLC organoid models, Cell Titer Glow 3D viability and Bliss synergy; assay type: cell-based; conditions: for bliss synergy score: vs carboplatin/etoposide (5:1 ratio) as a single treatment
Description: SCLC organoids from 16 models were prepared as follows: SCLC organoid models were expanded in 6-well plates, each well containing 2 ml of organoid medium. On the day of organoid seeding 20 μL 100× Dispase solution was added to each well and the plates were incubated at 37° C. for 30 min. Organoids were passed through a pre-wet 100 μm filter into a 50 ml plastic tube and subsequently further filtered through a wet 20 μm filter. Organoids were resuspended in culture media and counted. Matrigel was added to a final concentration of 5% v/v and 40 μL of cell suspensions add to each well of a 384-well plate by Multidrop dispenser.
The treatments tested for each organoid model were as follows: • (a) Compound of Formula (I) in monotherapy, • (b) carboplatin and etoposide (in a 5:1 ratio, considered as a single treatment), or • (c) Compound of Formula (I) in combination with carboplatin and etoposide, using the following concentrations in a matrix format: compound of Formula (I) in 6 concentrations from 0.047 to 1.5 μM, carboplatin in 6 concentrations from 0.156 to 5 μM, and etoposide in 6 concentrations from 0.031 to 1 μM)). Thus, for the carboplatin and etoposide treatment (considered as a single treatment in this experiment), the lowest concentration of carboplatin was combined with the lowest concentration of etoposide in a 5:1 ratio, the 2nd lowest doses of both reagents were combined, etc., while maintaining the 5:1 ratio. Then, each of these combinations were used either alone (carboplatin/etoposide treatment) or in further combination with each concentration of Compound of Formula (I).
The screening plates were incubated with treatments for 5 days. All treatments were performed in technical triplicates and biological replicates.
Plates were assayed for luminescent Cell Titer Glow (CTG) signal by adding 40 μL of CTG 3D per well by Multidrop dispenser, mixing for 5 mins and incubating for 30 min at room temperature in the dark. Luminescence signal was then measured on Envision plate reader.
The surviving and inhibition rates were calculated as follows for each treatment: […]
For synergy calculations and creation of heatmaps, the Bliss independence model was used on synergyfinder.org (Zheng, S.; Wang, W.; Aldahdooh, J.; Malyutina, A.; Shadbahr, T.; Tanoli Z; Pessia, A.; Jing, T. SynergyFinder Plus: Toward Better Interpretation and Annotation of Drug Combination Screening Datasets. Genomics, Proteomics & Bioinformatics 2022, in press. doi:10.1016/j.gpb.2022.01.004) considering carboplatin/etoposide as a single treatment vs Compound of Formula (I). 9 out of 16 models had bliss synergy scores >5 between Compound of Formula (I) and the carboplatin/etoposide treatment. […]

[8] = NCI-H446 CDX model, tolerability (body weight); assay type: in vivo; conditions: in combination with carboplatin 50 mg/kg QW I.V.; 16 day cycle
Description: as §1

[9] = test system: SCLC; conditions: SCLC patients; in combination with olaparib, or with carboplatin in platinum-refractory SCLC (BALTIC study, Arm B, NCT02937818); preliminary data; cited from earlier work
[10] = triple combination with carboplatin and etoposide

With Cc1cc(Nc2ncc3c(n2)N(C)CN(c2c(Cl)cccc2Cl)C3=O)ccc1C1CCN(C)CC1 [Compound of formula (I)] as the molecule, how does the “synergistic antitumor activity (Bliss synergy)” value [1] read?
Its value is “strong synergistic antitumor activity”.

And the “tumor growth inhibition (TGI)” value ([2]; 30 mg/kg QD 3 consecutive days a week P.O. in combination with carboplatin 50 mg/kg QW I.V., compared to vehicle, p=0.028)?
Its value is 67%.

What about the “TGI effects compared to vehicle” value [2] of the same molecule?
The value was “no significant TGI effects”.

And the “tumor growth inhibition (TGI)” value ([3]; day 7)?
The value was 34%.

And the “tumor growth inhibition (TGI)” value ([3]; day 11, p=0.012)?
Its value is 61%.

And the “mice remaining below the maximum tumor volume ethical criteria at end of treatment” value ([3]; in combination with etoposide, end of treatment (21 days), 7 animals per group)?
Its value is 4/7.

And the tolerability [4]?
Its tolerability is “well tolerated”.

And the body weight loss ([4]; immediately following treatment, all animals recovered quickly)?
The body weight loss was “some transient body weight losses”.

And the body weight loss ([5]; in combination with carboplatin 50 mg/kg QW I.V.)?
Its body weight loss is “No significant body weight loss”.

What about the body weight loss ([5]; in combination with etoposide QW I.P.) of the same molecule?
The body weight loss was “No significant body weight loss”.

And the body weight loss ([5]; monotherapy 30 mg/kg QD P.O., 21 day cycle)?
Its body weight loss is “No significant body weight loss”.

What about the body weight loss [5, 10] of the same molecule?
The body weight loss was “No significant body weight loss”.

And the tolerability [5, 10]?
The tolerability was “well tolerated”.

And the “tumor growth inhibition (TGI)” value ([6]; 30 mg/kg QD P.O. in combination with carboplatin 50 mg/kg QW I.V., 21 day cycle, vs vehicle controls, p=0.0026)?
The value was “about 68%”.

What about the “tumor growth inhibition (TGI)” value ([6]; 30 mg/kg QD P.O. in combination with etoposide (25 mg/kg or 12.5 mg/kg QW I.P.), 21 day cycle, vs vehicle controls, p=0.00015) of the same molecule?
The value was roughly 78%.

And the “tumor growth inhibition (TGI)” value ([6]; monotherapy 30 mg/kg QD P.O., 21 day cycle, vs vehicle, p=0.016)?
Its value is “up to 54%”.

What about the “tumor growth inhibition (TGI)” value ([6]; triple combination with carboplatin (50 mg/kg) and etoposide (12.5 mg/kg), compared to carboplatin and etoposide combination, p=0.0043) of the same molecule?
Its value is 44%.

And the “tumor growth inhibition (TGI)” value ([6]; triple combination with carboplatin (50 mg/kg) and etoposide (12.5 mg/kg), compared to vehicle controls, p<0.0001)?
The value was 72%.

And the tumor response ([6]; triple combination with carboplatin and etoposide, compared to carboplatin and etoposide treatments alone or to the double combination)?
Its tumor response is “significantly improved tumor response”.

And the pIC50 ([7]; 120 h, monotherapy, 5 days, in 12 out of 16 SCLC organoids)?
The pIC50 was greater than 5.82.

And the inhibition at 1.5 µM ([7]; monotherapy, at 1.5 uM (highest dose tested), in 12 out of 16 SCLC organoids, read-out: maximum inhibition rate (cell death rate))?
The inhibition at 1.5 µM was greater than 60%.

And the bliss synergy score ([7]; 5 days, in 5 of these models (FIG. 8), highly significant)?
The bliss synergy score was greater than 10.

And the bliss synergy score ([7]; 5 days, in 9 out of 16 SCLC organoid models)?
Its bliss synergy score is greater than 5.

What about the body weight loss [8] of the same molecule?
The body weight loss was “No significant body weight loss”.

With C=CCn1c(=O)c2cnc(Nc3ccc(N4CCN(C)CC4)cc3)nc2n1-c1cccc(C(C)(C)O)n1 [adavosertib] as the molecule, how does the antitumor activity [9] read?
Its antitumor activity is “limited antitumor activity”.

With N.N.O=C([O-])C1(C(=O)[O-])CCC1.[Pt+2] [carboplatin, reference compound] as the molecule, how does the “TGI effects compared to vehicle” value [2] read?
The value was “no significant TGI effects”.
